Experimental data reported in patent publication US8648176B2, “Engineered proteins with high affinity for DOTA chelates” (Massachusetts Institute of Technology, priority 2009, dated 2014).
Values joined by “and” are separate entries in the source; they are usually repeats but may differ in a detail not shown here. Identical values can stand only once.

What was measured:
[1] = system: CEA-positive (LS174T) tumor; assay: Three-step PRIT (bsAb, dextran-DOTA-Y clearing agent, radiolabeled DOTA) biodistribution in xenograft mice; format: in vivo; conditions: for tumor uptake/activity, antigen-positive LS174T tumor: PRIT protocol with bsAb and dextran-DOTA-Y
Experimental: (§1) Radiolabeling. DOTA compounds were dissolved at 0.5 mM in ammonium acetate pH 5.6. 1-2 mCi ^177LuCl3 (PerkinElmer, Waltham, Mass.) or ^111InCl3 (Cardinal Health, Dublin, Ohio) were added to the metal chelate and incubated for 1-2 h at 85-95 C. The radiolabeled compounds were purified by RP-HPLC (Humblet et al., Contrast Media Mol. Imaging. 1:196-211, 2006; Misra et al., J. Nucl. Med. 48:1379-1389, 2007) with gamma detection on a 4.6×75 mm Symmetry C18 column using a linear gradient from 0% to 40% B over 15 minutes, at a flow rate of 1 mL/min, where A=10 mM TEAA and B=methanol. The purified compounds were dried under vacuum, resuspended in saline, and filter-sterilized.
(§2) Animal models. All animal handling was performed in accordance with BIDMC IACUC guidelines. Male NCRU-nu/nu mice were purchased from Taconic Farms (Germantown, N.Y.). For biodistribution and tumor uptake, 100-150 μCi ^177Lu- or ^111In-labeled hapten was injected intravenously into the mice. Blood was collected from the tail vein using micro-capillary tubes and counted on a model 1470 Wallac Wizard™ (Perkin Elmer, Wellesley, Mass.) 10-detector gamma counter. Mice were euthanized by intraperitoneal injection of pentobarbital followed by cervical dislocation, a method consistent with the recommendations of the Panel on Euthanasia of the American Veterinary Medical Association. Organs and tumors were resected, washed in PCS three times, weighed, and counted as described above.
We next tested a protocol involving all three reagents to determine the efficacy of our engineered PRIT system. […] After an additional 1 h, 100-150 μCi ^177Lu-DOTA was injected intravenously. At 4 h post-injection of radiolabeled DOTA, tumor uptake was 7.44+/−0.41% ID/g in the antigen-positive tumor, 84-fold higher than the tumor uptake observed for ^177Lu-DOTA alone. Activity was also higher in non-tumor tissue due to binding of ^177Lu-DOTA to residual bsAb in the extravascular compartment. Tumor uptake in the antigen-negative tumor was 9.82+/−0.35% ID/g at 4 h, similar to the antigen-positive tumor due to nonspecific uptake from enhanced permeability and retention (EPR) of the bsAb. […] The LS174T tumor to blood ratio increased from 18+/−2 at 4 h to 380+/−90 at 24 h and was greater than 450 at 48 h. […] The LS174T tumor to kidney ratio increased from approximately 8 at 4 h to about 20 at 24 and 48 h. SPECT/CT images confirmed the quantitative biodistribution data with high PSECT signal in the CEA-positive tumors, lower signal in the CEA-negative tumor and no observable signal in non-tumor tissue.
The pretargeted protocol described above was used to analyze the effect of affinity on the tumor uptake of radiolabeled DOTA. […] The 24 h organ/tissue biodistribution was determined in tumor-bearing mice with each of the four radiolabeled DOTA compounds. […] The activity in the C6 antigen-negative tumor increased with affinity, presumably due to nonspecific uptake of bsAb. The activity in the non-tumor tissues is also higher for the higher affinity compounds due to the higher affinity binding to residual bsAb.

[2] = Organ uptake of DOTA-based compounds in normal CD1 mice; format: in vivo; conditions: 4 h p.i., compared to radiolabeled DOTA-biotin and DOTA-Bn
[3] = MIRD dosimetry estimate from PRIT mouse biodistribution; format: in vivo; conditions: 70 kg man
Experimental: Dosimetry. Radiation doses absorbed by normal tissues other than the red marrow were calculated according to the MIRD scheme. Percent injected activity in tumor, kidneys, liver, blood, and whole-body were calculated from activity measurements. The activity at time 0 was assumed to be 4% ID/g in the kidney and liver, 50% ID/g in the blood, 0% ID/g in the tumor and 100% in the whole-body. Isotope decay-adjusted activity was integrated over time, with a conservative assumption that the 48 h organ % ID remained constant thereafter. S values for ^90Y and ^177Lu were used to calculate dosimetry estimates in an adult male reference (Stabin and Siegel, Health Phys. 85:294-310, 2003). The red marrow dose was calculated as described (Wessels et al., J. Nucl. Med. 45:1725-1733, 2004) from blood activity measurements. […] Tumor doses were calculated from self-dose only using S-factors for a unit density sphere of size 500 g (the average LS174T tumor size scaled by 2000).
From the PRIT organ biodistribution data, the radiation dose to the kidney, liver, red marrow, and antigen-positive tumor was estimated for a 70 kg person for ^90Y and ^177Lu. […] The estimated doses to the kidney, liver, and red marrow were calculated from both the self-dose and cross-dose, wherein the whole-body activity was used to determine the cross-dose. The estimated dose to the tumor was determined from self-dose only. […]

CEA-negative (C6) tumor = assay: Three-step PRIT (bsAb, dextran-DOTA-Y clearing agent, radiolabeled DOTA) biodistribution in xenograft mice; format: in vivo; conditions: PRIT protocol
Experimental: as §1, §2
We next tested a protocol involving all three reagents to determine the efficacy of our engineered PRIT system. […] After an additional 1 h, 100-150 μCi ^177Lu-DOTA was injected intravenously. At 4 h post-injection of radiolabeled DOTA, tumor uptake was 7.44+/−0.41% ID/g in the antigen-positive tumor, 84-fold higher than the tumor uptake observed for ^177Lu-DOTA alone. […] SPECT/CT images confirmed the quantitative biodistribution data with high PSECT signal in the CEA-positive tumors, lower signal in the CEA-negative tumor and no observable signal in non-tumor tissue.

DOTA-Bn-biotin-Y [4] = assay: KD by titration of yeast surface-displayed scFv, flow cytometry; format: binding; conditions: hapten DOTA-Bn-Biotin, metal Y, 37° C., mean ± SD
Experimental: Briefly, yeast expressing an scFv clone on their surface were grown, washed with PBSA and incubated with various concentrations of DOTA-Bn-biotin-metal long enough to allow for at least a 95% approach to equilibrium. Generally, 5×10^5 induced cells were used for each concentration point. When antigen concentrations less than 10 pM were assayed, the titration was performed with 2.5×10^4 induced and 7.5×10^5 non-induced cells to ensure antigen excess over the scFv without requiring impractically large volumes. The addition of non-induced cells aids pelleting during centrifugation (Hackel et al., J. Mol. Biol. 381:1238-1252, 2008). When antigen concentrations greater than 100 nM were used, non-specific antigen binding to the yeast surface was taken into account. Yeast expressing an irrelevant scFv on their surface were treated in the same manner as the yeast displaying the scFv of interest, and mean total phycoeryhthrein fluorescence (MFUtot) due to non-specific binding was measured by flow cytometry and averaged over three replicates. This value was subtracted from the MFUtot for the yeast of interest, and the data was fit by least-squares regression.

DOTA-Bn-biotin-Y [5] = assay: Dissociation kinetics, yeast surface-displayed scFv; format: binding
Experimental: Dissociation Kinetics. To determine the dissociation rate, koff, for DOTA-Bn-biotin complexes, cells were induced and washed as above, and 1×10^7 cells were incubated in 1 mL PBSA with 1 nM DOTA-Bn-biotin-metal for 1 h to reach saturation. Subsequently, the yeast were washed with 1 mL PBSA, resuspended in 1 mL PBSA with 1 μM (excess) non-biotinylated antigen as competitor and split into 100 μL aliquots. These aliquots were incubated at 37° C. for different lengths of time, then washed with cold PBSA and left on ice. All samples were simultaneously stained with streptavidin-phycoerythrein for 10-20 min and analyzed by flow cytometry. The data was fit to the following equation by least squares regression, varying MFUmin, MFUrange and koff: MFUtot=MFUmin+MFUrangee^−k^off^t For nonbiotinylated antigens, the procedure was identical except that initial saturation was with the nonbiotinylated antigen and DOTA-Bn-biotin-metal was used as competitor. The data followed the expression MFUtot=MFUmin+MFUrange(1−e^−k^off^t)

DOTA-Bn-Gd = assay: KD by competition with DOTA-Bn-biotin-Y, yeast surface-displayed scFv; format: binding; conditions: hapten DOTA-Bn, metal Gd; mean ± SD
Experimental: (§3) KD Measurements for DOTA-metal and DOTA-Bn-metal. To determine the KD for scFv binding to nonbiotinylated haptens, the above protocol was modified to a competition-based assay as follows. […] Incubation, staining, and flow cytometry analysis was the same as that for biotinylated antigen. MFUtot as a function of the concentration of the nonbiotinylated antigen ([Ag]), a normalization constant (MFUrange), the minimal total mean fluorescence (MFUmin), the KD for DOTA-Bn-biotin-Y (KD, biot), DOTA-Bn-biotin-Y concentration ([Agbiot]), and the KD for the antigen of interest (KD) follows this modified equation:
(§4) [formula] The data was fit by least squares regression as before, varying MFUmin, MFUrange and KD.

DOTA-Lu = assay: as above; format: binding; conditions: hapten DOTA, metal Lu; mean ± SD
Experimental: as §3, §4

DOTA-Gd = assay: as above; format: binding; conditions: hapten DOTA, metal Gd; mean ± SD
Experimental: as §3, §4

DOTA-Ga = assay: as above; format: binding; conditions: hapten DOTA, metal Ga; mean ± SD
Experimental: as §3, §4

DOTA-Bn-In = assay: as above; format: binding; conditions: hapten DOTA-Bn, metal In; mean ± SD
Experimental: as §3, §4

DOTA-Bn-Ga = assay: as above; format: binding; conditions: hapten DOTA-Bn, metal Ga; mean ± SD
Experimental: as §3, §4

DOTA-Bn-Lu = assay: as above; format: binding; conditions: hapten DOTA-Bn, metal Lu; mean ± SD
Experimental: as §3, §4

DOTA-Y = assay: as above; format: binding; conditions: hapten DOTA, metal Y; mean ± SD
Experimental: as §3, §4

DOTA-In = assay: as above; format: binding; conditions: hapten DOTA, metal In; mean ± SD
Experimental: as §3, §4

DOTA-Bn-Y = assay: as above; format: binding; conditions: hapten DOTA-Bn, metal Y; mean ± SD
Experimental: as §3, §4

Question: For `O=C([O-])CN1CCN(CC(=O)[O-])CCN(CC(=O)[O-])CCN(CC(=O)[O-])CC1.[111In+3]` [^111In-DOTA], which “LS174T tumor to kidney ratio” value ([1]; 24 h, PRIT protocol) is on record?
Answer: The value was 1.2+/−0.4.

Question: What about the “tumor uptake/activity, antigen-positive LS174T tumor” value ([1]; 24 h) of the same molecule?
Answer: The value was 0.5+/−0.1 % ID/g.

Question: Which “LS174T tumor to blood ratio” value ([1]; 4 h, PRIT protocol) does the source give for `O=C([O-])CN1CCN(CC(=O)[O-])CCN(CC(=O)[O-])CCN(CC(=O)[O-])CC1.[177Lu+3].[H+]` [^177Lu-DOTA] here?
Answer: Its value is 18+/−2.

Question: What about the “LS174T tumor to kidney ratio” value ([1]; 4 h, PRIT protocol) of the same molecule?
Answer: The value was “approximately 8”.

Question: And the “tumor uptake relative to hapten alone” value ([1]; 4 h, antigen-positive tumor, versus ^177Lu-DOTA alone)?
Answer: Its value is 84 fold.

Question: What about the “tumor uptake, antigen-positive tumor” value ([1]; 4 h post-injection of radiolabeled DOTA, 500 μg bsAb, 250 μg dextran-DOTA-Y 24 h later, hapten 1 h later) of the same molecule?
Answer: The value was 7.44+/−0.41 % ID/g.

Question: And the “tumor uptake/activity, antigen-positive LS174T tumor” value ([1]; 24 h)?
Answer: Its value is ~14 % ID/g and 14.3+/−1.8 % ID/g.

Question: What about the “tumor uptake relative to hapten of ~1 nM affinity” value ([1]; 24 hours, affinity ~100 pM versus ~1 nM) of the same molecule?
Answer: The value was 8 fold.

Question: What about the “tumor uptake relative to hapten of ~10 nM affinity” value ([1]; 24 hours, affinity ~100 pM versus ~10 nM) of the same molecule?
Answer: Its value is 28 fold.

Question: What about the blood activity ([1]; 48 h, PRIT protocol) of the same molecule?
Answer: The blood activity was “not measurable above background”.

Question: What about the “liver and intestine uptake” value [2] of the same molecule?
Answer: The value was “slightly lower”.

Question: And the “estimated dose to the tumor” value ([3]; at a red marrow dose of 1.5 Gy, estimated from mouse biodistribution, self-dose only)?
Answer: Its value is 156 Gy.

Question: And the dose-limiting organ ([3]; predicted from radiation dose estimates)?
Answer: Its dose-limiting organ is “red marrow”.

Question: And the “tumor uptake, antigen-negative tumor” value (CEA-negative (C6) tumor; 4 h)?
Answer: Its value is 9.82+/−0.35 % ID/g.

Question: And the “tumor activity, antigen-negative tumor” value (CEA-negative (C6) tumor; 24 h)?
Answer: Its value is 4.23+/−0.54 % ID/g.

Question: And the “tumor activity, antigen-negative tumor” value (CEA-negative (C6) tumor; 48 h)?
Answer: Its value is 2.89+/−2.28 % ID/g.

B1: 2D12.5ds: original 2D12.5 scFv with the addition of the intramolecular disulfide bond and removed glycosylation site (SEQ ID NO:2) (protein)
scFv: QVKLQESGPGLVQPSQSLSITCTVSGFSLTDYGVHWVRQSPGKGLEWLGVIWSGGGTAYTAAFISRLNIYKDNSKNQVFFEMNSLQAEDTAMYYCARRGSYPYNYFDVWGCGTTVTVSSGGGGSGGGGSGGGGSQAVVTQESALTTSPGETVTLTCRSSTGAVTTSNYANWVQEKPDHCFTGLIGGNNNRPPGVPARFSGSLIGDKAALTIAGTQTEDEAIYFCALWYSNHWVFGGGTRLTVLG
Question: What does the source list for B1?
Answer: Kd (DOTA-Bn-biotin-Y [4]): 3.7 ± 3.6 nM; dissociation half-time (DOTA-Bn-biotin-Y [5]): 5.5 min

B2: C8.2.5: high-affinity disulfide-stabilized DOTA-binding scFv affinity matured from 2D12.5; residues 1-244 are SEQ ID NO:12 (protein)
scFv: HVKLQESGPGLVQPSQSLSLTCTVSGFSLTDYGVHWVRQSPGKGLEWLGVIWSGGGTAYNTALISRLNIYRDNSKNQVFLEMNSLQAEDTAMYYCARRGSYPYNYFDAWGCGTTVTVSSGGGGSGGGGSGGGGSQAVVIQESALTTPPGETVTLTCGSSTGAVTASNYANWVQEKPDHCFTGLIGGHNNRPPGVPARFSGSLIGDKAALTIAGTQTEDEAIYFCALWYSDHWVIGGGTRLTVLGGSEQKLISEEDL
Question: What does the source list for B2?
Answer: Kd (DOTA-Bn-Gd): 0.034 ± 0.0053 nM; Kd (DOTA-Lu): 0.39 ± 0.014 nM; Kd (DOTA-Gd): 0.149 ± 0.006 nM; Kd (DOTA-Ga): 216 ± 26 nM; Kd (DOTA-Bn-In): 1.01 ± 0.04 nM; Kd (DOTA-Bn-Ga): 52 ± 12 nM; Kd (DOTA-Bn-Lu): 0.0108 ± 0.0025 nM; Kd (DOTA-Y): 0.103 ± 0.035 nM; Kd (DOTA-In): 23.7 ± 3.7 nM; Kd (DOTA-Bn-Y): 0.0154 ± 0.002 nM; Kd (DOTA-Bn-biotin-Y [4]): 0.0082 ± 0.0019 nM; dissociation half-time (DOTA-Bn-biotin-Y [5]): over 5 hours
